Laboratory results taken from US20250122219A1 (priority 2023, published 2025).

Experiments:
HIV-1 (IIIB) = experiment: Antiviral assay in MT-4 cells; assay type: cell-based; conditions: Human immunodeficiency virus 1, MT4, 120 h; HIV-1 IIIB in MT-4 cells, 5 days incubation, Cell Titer Glo; read-out: MT4 EC50
Experimental: Compounds were tested in a high-throughput 384-well assay format for their ability to inhibit the replication of HIV-1 (IIIB) in MT-4 cells. Compounds were serially diluted (1.3) in DMSO on 384-well polypropylene plates and further diluted 200-fold into complete RPMI media (10% FBS, 1% P/S) using the Biotek Micro Flow and Labcyte ECHO acoustic dispenser. Each plate contained up to 8 test compounds, with negative (No Drug Control) and 5 μM AZT positive controls. MT-4 cells were pre-infected with 10 μL of either RPMI (mock-infected) or a fresh 1:250 dilution of HIV-1 IIIB concentrated virus stock. Infected and uninfected MT-4 cells were further diluted in complete RPMI media and added to each plate using a Micro Flow dispenser. After 5 days incubation in a humidified and temperature controlled incubator (37° C.), Cell Titer Glo (Promega) was added to the assay plates and chemiluminescence read using an Envision plate-reader.

[1] = Cytotoxicity assay in MT-4 cells; assay type: cell-based; conditions: human; uninfected MT-4 cells, 5 days incubation, Cell Titer Glo; read-out: MT4 CC50
In short: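 Viability read by Cell Titer Glo luminescence after 5 days at 37 °C. MT-4 cells, not infected, in complete RPMI (10% FBS), received compound dilution series. Base cytotoxicity set with […] puromycin.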

CCCCCCC(=O)Oc1c2n(cc(C(=O)NCc3ccc(F)cc3F)c1=O)[C@@H]1CN(C2=O)[C@@H](C)CC[C@]12CC(OC)=NO2 [Example 38, (3′S,5S,7′R)-10′-((2,4-difluorobenzyl)carbamoyl)-3-methoxy-3′-methyl-1′,11′-dioxo-1′,4′,5′,11′-tetrahydro-3′H,4H,7′H-spiro[isoxazole-5,6′-[2,7]methanopyrido[1,2-a][1,4]diazonin]-12′-yl heptanoate]
EC50 (HIV-1 (IIIB)): 0.331 nM | CC50 at 5 days [1]: 25.7 µM

CCCCCCC(=O)Oc1c2n(cc(C(=O)NCc3ccc(F)cc3F)c1=O)[C@@H]1CN(C2=O)[C@@H](C)CC[C@]12CC(C)=NO2 [Example 39, (3′S,5S,7′R)-10′-((2,4-difluorobenzyl)carbamoyl)-3,3′-dimethyl-1′,11′-dioxo-1′,4′,5′,11′-tetrahydro-3′H,4H,7′H-spiro[isoxazole-5,6′-[2,7]methanopyrido[1,2-a][1,4]diazonin]-12′-yl heptanoate]
EC50 (HIV-1 (IIIB)): 0.75 nM | CC50 at 5 days [1]: 23.7 µM

CCCCCCCC(=O)Oc1c2n(cc(C(=O)NCc3ccc(F)cc3F)c1=O)[C@@H]1CN(C2=O)[C@@H](C)CC[C@]12CC(OC)=NO2 [Example 40, (3′S,5S,7′R)-10′-((2,4-difluorobenzyl)carbamoyl)-3-methoxy-3′-methyl-1′,11′-dioxo-1′,4′,5′,11′-tetrahydro-3′H,4H,7′H-spiro[isoxazole-5,6′-[2,7]methanopyrido[1,2-a][1,4]diazonin]-12′-yl octanoate]
EC50 (HIV-1 (IIIB)): 0.592 nM | CC50 at 5 days [1]: 25.1 µM

CCCCCCCC(=O)Oc1c2n(cc(C(=O)NCc3ccc(F)cc3F)c1=O)[C@@H]1CN(C2=O)[C@@H](C)CC[C@]12CC(C)=NO2 [Example 41, (3′S,5S,7′R)-10′-((2,4-difluorobenzyl)carbamoyl)-3,3′-dimethyl-1′,11′-dioxo-1′,4′,5′,11′-tetrahydro-3′H,4H,7′H-spiro[isoxazole-5,6′-[2,7]methanopyrido[1,2-a][1,4]diazonin]-12′-yl octanoate]
EC50 (HIV-1 (IIIB)): 0.319 nM | CC50 at 5 days [1]: 11.5 µM

CCCCCCCCC(=O)Oc1c2n(cc(C(=O)NCc3ccc(F)cc3F)c1=O)[C@@H]1CN(C2=O)[C@@H](C)CC[C@]12CC(OC)=NO2 [Example 42, (3′S,5S,7′R)-10′-((2,4-difluorobenzyl)carbamoyl)-3-methoxy-3′-methyl-1′,11′-dioxo-1′,4′,5′,11′-tetrahydro-3′H,4H,7′H-spiro[isoxazole-5,6′-[2,7]methanopyrido[1,2-a][1,4]diazonin]-12′-yl nonanoate]
EC50 (HIV-1 (IIIB)): 1.94 nM | CC50 at 5 days [1]: 40.6 µM

CCCCCCCCC(=O)Oc1c2n(cc(C(=O)NCc3ccc(F)cc3F)c1=O)[C@@H]1CN(C2=O)[C@@H](C)CC[C@]12CC(C)=NO2 [Example 43, (3′S,5S,7′R)-10′-((2,4-difluorobenzyl)carbamoyl)-3,3′-dimethyl-1′,11′-dioxo-1′,4′,5′,11′-tetrahydro-3′H,4H,7′H-spiro[isoxazole-5,6′-[2,7]methanopyrido[1,2-a][1,4]diazonin]-12′-yl nonanoate]
EC50 (HIV-1 (IIIB)): 1.97 nM | CC50 at 5 days [1]: 21.1 µM

CCCCCCCCCC(=O)Oc1c2n(cc(C(=O)NCc3ccc(F)cc3F)c1=O)[C@@H]1CN(C2=O)[C@@H](C)CC[C@]12CC(OC)=NO2 [Example 44, (3′S,5S,7′R)-10′-((2,4-difluorobenzyl)carbamoyl)-3-methoxy-3′-methyl-1′,11′-dioxo-1′,4′,5′,11′-tetrahydro-3′H,4H,7′H-spiro[isoxazole-5,6′-[2,7]methanopyrido[1,2-a][1,4]diazonin]-12′-yl decanoate]
EC50 (HIV-1 (IIIB)): 0.477 nM | CC50 at 5 days [1]: 24.5 µM

CCCCCCCCCC(=O)Oc1c2n(cc(C(=O)NCc3ccc(F)cc3F)c1=O)[C@@H]1CN(C2=O)[C@@H](C)CC[C@]12CC(C)=NO2 [Example 45, (3′S,5S,7′R)-10′-((2,4-difluorobenzyl)carbamoyl)-3,3′-dimethyl-1′,11′-dioxo-1′,4′,5′,11′-tetrahydro-3′H,4H,7′H-spiro[isoxazole-5,6′-[2,7]methanopyrido[1,2-a][1,4]diazonin]-12′-yl decanoate]
EC50 (HIV-1 (IIIB)): 0.373 nM | CC50 at 5 days [1]: 22.2 µM

CCCCCCCCCCCC(=O)Oc1c2n(cc(C(=O)NCc3ccc(F)cc3F)c1=O)[C@@H]1CN(C2=O)[C@@H](C)CC[C@]12CC(OC)=NO2 [Example 46, (3′S,5S,7′R)-10′-((2,4-difluorobenzyl)carbamoyl)-3-methoxy-3′-methyl-1′,11′-dioxo-1′,4′,5′,11′-tetrahydro-3′H,4H,7′H-spiro[isoxazole-5,6′-[2,7]methanopyrido[1,2-a][1,4]diazonin]-12′-yl dodecanoate]
EC50 (HIV-1 (IIIB)): 2.06 nM | CC50 at 5 days [1]: 36.2 µM

CCCCCCCCCCCC(=O)Oc1c2n(cc(C(=O)NCc3ccc(F)cc3F)c1=O)[C@@H]1CN(C2=O)[C@@H](C)CC[C@]12CC(C)=NO2 [Example 47, (3′S,5S,7′R)-10′-((2,4-difluorobenzyl)carbamoyl)-3,3′-dimethyl-1′,11′-dioxo-1′,4′,5′,11′-tetrahydro-3′H,4H,7′H-spiro[isoxazole-5,6′-[2,7]methanopyrido[1,2-a][1,4]diazonin]-12′-yl dodecanoate]
EC50 (HIV-1 (IIIB)): 2.01 nM | CC50 at 5 days [1]: 22.6 µM

COC1=NO[C@@]2(CC[C@H](C)N3C[C@H]2n2cc(C(=O)NCc4ccc(F)cc4F)c(=O)c(OC(=O)C4CCCC4)c2C3=O)C1 [Example 52, (3′S,5S,7′R)-10′-((2,4-difluorobenzyl)carbamoyl)-3-methoxy-3′-methyl-1′,11′-dioxo-1′,4′,5′,11′-tetrahydro-3′H,4H,7′H-spiro[isoxazole-5,6′-[2,7]methanopyrido[1,2-a][1,4]diazonin]-12′-yl cyclopentanecarboxylate]
EC50 (HIV-1 (IIIB)): 0.604 nM | CC50 at 5 days [1]: 24.7 µM

CC1=NO[C@@]2(CC[C@H](C)N3C[C@H]2n2cc(C(=O)NCc4ccc(F)cc4F)c(=O)c(OC(=O)C4CCCC4)c2C3=O)C1 [Example 53, (3′S,5S,7′R)-10′-((2,4-difluorobenzyl)carbamoyl)-3,3′-dimethyl-1′,11′-dioxo-1′,4′,5′,11′-tetrahydro-3′H,4H,7′H-spiro[isoxazole-5,6′-[2,7]methanopyrido[1,2-a][1,4]diazonin]-12′-yl cyclopentanecarboxylate]
EC50 (HIV-1 (IIIB)): 1.44 nM | CC50 at 5 days [1]: 24.4 µM

COC1=NO[C@@]2(CC[C@H](C)N3C[C@H]2n2cc(C(=O)NCc4ccc(F)cc4F)c(=O)c(OC(=O)CC(C)C)c2C3=O)C1 [Example 54, (3′S,5S,7′R)-10′-((2,4-difluorobenzyl)carbamoyl)-3-methoxy-3′-methyl-1′,11′-dioxo-1′,4′,5′,11′-tetrahydro-3′H,4H,7′H-spiro[isoxazole-5,6′-[2,7]methanopyrido[1,2-a][1,4]diazonin]-12′-yl 3-methylbutanoate]
EC50 (HIV-1 (IIIB)): 0.504 nM | CC50 at 5 days [1]: 19.4 µM

CC1=NO[C@@]2(CC[C@H](C)N3C[C@H]2n2cc(C(=O)NCc4ccc(F)cc4F)c(=O)c(OC(=O)CC(C)C)c2C3=O)C1 [Example 55, (3′S,5S,7′R)-10′-((2,4-difluorobenzyl)carbamoyl)-3,3′-dimethyl-1′,11′-dioxo-1′,4′,5′,11′-tetrahydro-3′H,4H,7′H-spiro[isoxazole-5,6′-[2,7]methanopyrido[1,2-a][1,4]diazonin]-12′-yl 3-methylbutanoate]
EC50 (HIV-1 (IIIB)): 0.313 nM | CC50 at 5 days [1]: 16.4 µM

COC1=NO[C@@]2(CC[C@H](C)N3C[C@H]2n2cc(C(=O)NCc4ccc(F)cc4F)c(=O)c(OC(=O)CCC(C)C)c2C3=O)C1 [Example 56, (3′S,5S,7′R)-10′-((2,4-difluorobenzyl)carbamoyl)-3-methoxy-3′-methyl-1′,11′-dioxo-1′,4′,5′,11′-tetrahydro-3′H,4H,7′H-spiro[isoxazole-5,6′-[2,7]methanopyrido[1,2-a][1,4]diazonin]-12′-yl 4-methylpentanoate]
EC50 (HIV-1 (IIIB)): 1.24 nM | CC50 at 5 days [1]: 34.7 µM

CC1=NO[C@@]2(CC[C@H](C)N3C[C@H]2n2cc(C(=O)NCc4ccc(F)cc4F)c(=O)c(OC(=O)CCC(C)C)c2C3=O)C1 [Example 57, (3′S,5S,7′R)-10′-((2,4-difluorobenzyl)carbamoyl)-3,3′-dimethyl-1′,11′-dioxo-1′,4′,5′,11′-tetrahydro-3′H,4H,7′H-spiro[isoxazole-5,6′-[2,7]methanopyrido[1,2-a][1,4]diazonin]-12′-yl 4-methylpentanoate]
EC50 (HIV-1 (IIIB)): 1.54 nM | CC50 at 5 days [1]: 23.1 µM

COC1=NO[C@@]2(CC[C@H](C)N3C[C@H]2n2cc(C(=O)NCc4ccc(F)cc4F)c(=O)c(OC(=O)CCC4CCCC4)c2C3=O)C1 [Example 58, (3′S,5S,7′R)-10′-((2,4-difluorobenzyl)carbamoyl)-3-methoxy-3′-methyl-1′,11′-dioxo-1′,4′,5′,11′-tetrahydro-3′H,4H,7′H-spiro[isoxazole-5,6′-[2,7]methanopyrido[1,2-a][1,4]diazonin]-12′-yl 3-cyclopentylpropanoate]
EC50 (HIV-1 (IIIB)): 0.284 nM | CC50 at 5 days [1]: 23.9 µM

CC1=NO[C@@]2(CC[C@H](C)N3C[C@H]2n2cc(C(=O)NCc4ccc(F)cc4F)c(=O)c(OC(=O)CCC4CCCC4)c2C3=O)C1 [Example 59, (3′S,5S,7′R)-10′-((2,4-difluorobenzyl)carbamoyl)-3,3′-dimethyl-1′,11′-dioxo-1′,4′,5′,11′-tetrahydro-3′H,4H,7′H-spiro[isoxazole-5,6′-[2,7]methanopyrido[1,2-a][1,4]diazonin]-12′-yl 3-cyclopentylpropanoate]
EC50 (HIV-1 (IIIB)): 0.459 nM | CC50 at 5 days [1]: 15.4 µM
